According to paper PMC7470982 (2020):

Columns and labels:
[1] = test system: KRAS (DNA, i motif) GCCCGGCCCCCGCTCCTCCCCCGCCGGCCCGGCCCGGCCCCCTCCTTCTCCCCG; assay: CD melting; details: 100 mM KCl, potassium phosphate 60 mM; 1× BPES, pH 5.5; 1 μM DNA, 20 μM compound
[2] = test system: py27 (C-MYC) (DNA, i motif) CCTTCCCCACCCTCCCCACCCTCCCCA; assay: CD melting; details: 100 mM KCl, potassium phosphate 60 mM; 1× BPES, pH 5.5; 1 μM DNA, 20 μM compound
[3] = test system: bio-VEGF (DNA, i motif) GACCCCGCCCCCGGCCCGCCCCGG; assay: SPR; details: 100 mM KCl; 20 mM MES, pH 5.5, 25 °C; immobilised DNA
[4] = test system: FKRAST (DNA, i motif) GCCCGGCCCCCGCTCCTCCCCCGCCGGCCCGGCCCGGCCCCCTCCTTCTCCCCG; assay: FRET melting; details: 100 mM KCl, potassium phosphate 60 mM; 1× BPES, pH 5.5; 0.2 μM DNA, 4 μM compound
[5] = test system: VEGF (DNA, i motif) GACCCCGCCCCCGGCCCGCCCCGG; assay: CD melting; details: 100 mM KCl, potassium phosphate 60 mM; 1× BPES, pH 5.5; 1 μM DNA, 20 μM compound
[6] = test system: Fpy39 (DNA, i motif) CAGCCCCGCTCCCGCCCCCTTCCTCCCGCGCCCGCCCCT; assay: MST; details: 100 mM KCl, potassium phosphate 60 mM; 1× BPES (1 mM EDTA), pH 5.5, 25 °C
[7] = test system: bio-C-KIT (DNA, i motif) CCCTCCTCCCAGCGCCCTCCCT; assay: SPR; details: 100 mM KCl; 20 mM MES, pH 5.5, 25 °C; immobilised DNA
[8] = test system: bio-py39 (DNA, i motif) CAGCCCCGCTCCCGCCCCCTTCCTCCCGCGCCCGCCCCT; assay: SPR; details: 100 mM KCl; 20 mM MES, pH 5.5, 25 °C; immobilised DNA
[9] = test system: C-KIT (DNA, i motif) CCCTCCTCCCAGCGCCCTCCCT; assay: CD melting; details: 100 mM KCl, potassium phosphate 60 mM; 1× BPES, pH 5.5; 1 μM DNA, 20 μM compound
[10] = test system: Fpy27T (F-C-MYC-T) (DNA, i motif) CCTTCCCCACCCTCCCCACCCTCCCCA; assay: FRET melting; details: 100 mM KCl, potassium phosphate 60 mM; 1× BPES, pH 5.5; 0.2 μM DNA, 4 μM compound
[11] = test system: bio-py27 (bio-C-MYC) (DNA, i motif) CCTTCCCCACCCTCCCCACCCTCCCCA; assay: SPR; details: 100 mM KCl; 20 mM MES, pH 5.5, 25 °C; immobilised DNA
[12] = test system: Fpy39T (DNA, i motif) CAGCCCCGCTCCCGCCCCCTTCCTCCCGCGCCCGCCCCT; assay: FRET melting; details: 100 mM KCl, potassium phosphate 60 mM; 1× BPES, pH 5.5; 0.2 μM DNA, 4 μM compound
[13] = test system: bio-hairpin (DNA, hairpin, HEG (non-nucleotide) linker between nucleotides 10 and 11) TATAGCTATATATAGCTATA; assay: SPR; details: 100 mM KCl; 20 mM Tris-HCl, pH 7.4, 25 °C; immobilised DNA
[14] = test system: FC-KITT (DNA, i motif) CCCTCCTCCCAGCGCCCTCCCT; assay: FRET melting; details: 100 mM KCl, potassium phosphate 60 mM; 1× BPES, pH 5.5; 0.2 μM DNA, 4 μM compound
[15] = test system: GC duplex (py39+pu39) (DNA, duplex) CAGCCCCGCTCCCGCCCCCTTCCTCCCGCGCCCGCCCCT/AGGGGCGGGCGCGGGAGGAAGGGGGCGGGAGCGGGGCTG; assay: TO fluorescent intercalator displacement; details: 20 mM NaCl; 20 mM Tris-HCl, pH 7.4; 1 μM DNA, 1 μM thiazole orange displaced
[16] = test system: py39 (DNA, i motif) CAGCCCCGCTCCCGCCCCCTTCCTCCCGCGCCCGCCCCT; assay: CD melting; details: 100 mM KCl, potassium phosphate 60 mM; 1× BPES, pH 5.5; 1 μM DNA, 20 μM compound
[17] = test system: FVEGFT (DNA, i motif) GACCCCGCCCCCGGCCCGCCCCGG; assay: FRET melting; details: 100 mM KCl, potassium phosphate 60 mM; 1× BPES, pH 5.5; 0.2 μM DNA, 4 μM compound
[18] = test system: py27 (C-MYC) (DNA, i motif) CCTTCCCCACCCTCCCCACCCTCCCCA; assay: ITC; details: 100 mM KCl, potassium phosphate 60 mM; 1× BPES (1 mM EDTA), pH 5.5, 25 °C; fitted to 1:1 model
[19] = test system: py39 (DNA, i motif) CAGCCCCGCTCCCGCCCCCTTCCTCCCGCGCCCGCCCCT; assay: TO fluorescent intercalator displacement; details: K+ (1x BPES: 100 mM KCl, potassium phosphate); 1x BPES pH 5.5; 1 μM DNA, 1 μM thiazole orange displaced
[20] = test system: pu39 (DNA, G4) AGGGGCGGGCGCGGGAGGAAGGGGGCGGGAGCGGGGCTG; assay: TO fluorescent intercalator displacement; details: K+ (100 mM KCl); 20 mM Tris-HCl pH 7.4; 1 μM DNA, 1 μM thiazole orange displaced
[21] = test system: hairpin (DNA, hairpin) CGCGCGCGTTTTCGCGCGCG; assay: TO fluorescent intercalator displacement; details: 1 μM DNA, 1 μM thiazole orange displaced
[22] = test system: Fpy27 (DNA, i motif) CCTTCCCCACCCTCCCCACCCTCCCCA; assay: MST; details: 100 mM KCl, potassium phosphate 60 mM; 1× BPES (1 mM EDTA), pH 5.5, 25 °C
[23] = test system: py39 (DNA, i motif) CAGCCCCGCTCCCGCCCCCTTCCTCCCGCGCCCGCCCCT; assay: ITC; details: 100 mM KCl, potassium phosphate 60 mM; 1× BPES (1 mM EDTA), pH 5.5, 25 °C; fitted to 1:1 model

ΔTm [1]: 1.03 °C
ΔTm [2]: 4.26 °C
KD [3]: 36.4 µM
ΔTm [4]: 1.17 °C
ΔTm [5]: 1.34 °C
KD [6]: 4.69 µM
KD [7]: 34.5 µM
KD [8]: 3.56 µM
ΔTm [9]: 0.20 °C
ΔTm [10]: 3.50 °C
KD [11]: 11.95 µM
ΔTm [12]: 9.15 °C
KD [13]: > 50 µM
ΔTm [14]: -0.52 °C
relative TO displacement ratio [15]: 6%
ΔTm [16]: 9.63 °C
ΔTm [17]: -0.64 °C
KD [18]: 11.1 µM
relative TO displacement ratio [19]: 52%
relative replacement ratio [20]: 10%
relative TO displacement ratio [21]: 12%
KD [22]: 10.95 µM
KD [23]: 5.52 µM
Structure (SMILES): Cc1ccc2c(c1)c(=O)c1cc(C(=O)NCCCN3CCOCC3)ccc1n2-c1ccc(C(=O)NCCCN2CCOCC2)cc1
